Data: the supplement of paper PMC6045584

Assays:
Assay in all cases: area under dose-response curve of surviving fraction (unscaled, Aref=0) (surviving fraction x log10(nM)); higher = more resistant
Settings in all cases: exposure time: 5 days; dose range 0.5-1000 nM
[1] = compound: C[C@H](CN(C)C)Oc1nc(Nc2cc3cccc(Cl)c3cn2)cnc1C#N
Procedure, shortened: (§1)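 Tumour cell lines in 384-well plates were exposed for five days to eight inhibitor concentrations from 0.5 to 1000 nM. Viability was read by CellTiter-Glo luminescence, normalised to DMSO-only wells, in three screens per line. Dose-response survival curves were fitted to surviving fractions by 3-parameter logistic regression in the drc R package. Area under the curve is the unscaled activity area (Aref = 0) over log10 dose.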

BLEOMYCIN = compound: Cc1c(N)nc([C@H](CC(N)=O)NC[C@H](N)C(N)=O)nc1C(=O)N[C@H](C(=O)N[C@H](C)[C@@H](O)[C@H](C)C(=O)N[C@H](C(=O)NCCc1nc(-c2nc(C(=O)NCCC[S+](C)C)cs2)cs1)[C@@H](C)O)[C@@H](OC1OC(CO)C(O)C(O)C1OC1OC(CO)C(O)C(OC(N)=O)C1O)c1cnc[nH]1 [BLEOMYCIN]
Procedure, shortened: as §1

VORINOSTAT = compound: O=C(CCCCCCC(=O)Nc1ccccc1)NO [VORINOSTAT]
Procedure, shortened: as §1

[2] = compound: CCc1cc(Nc2nccc(-c3c(-c4ccc(OC)c(C(=O)Nc5c(F)cccc5F)c4)nc4ccccn34)n2)c(OC)cc1N1CCC(N2CCN(S(C)(=O)=O)CC2)CC1
Procedure, shortened: as §1

NILOTINIB = compound: Cc1cn(-c2cc(NC(=O)c3ccc(C)c(Nc4nccc(-c5cccnc5)n4)c3)cc(C(F)(F)F)c2)cn1 [NILOTINIB]
Procedure, shortened: as §1

MK-1775 = compound: C=CCn1c(=O)c2cnc(Nc3ccc(N4CCN(C)CC4)cc3)nc2n1-c1cccc(C(C)(C)O)n1 [MK-1775]
Procedure, shortened: as §1

[3] = compound: COc1ccc(-c2cc3c(C)nc(N)nc3n([C@H]3CC[C@H](OCCO)CC3)c2=O)cn1
Procedure, shortened: as §1

AFIMOXIFENE = compound: CC/C(=C(\c1ccc(O)cc1)c1ccc(OCCN(C)C)cc1)c1ccccc1 [AFIMOXIFENE]
Procedure, shortened: as §1

[4] = compound: C[C@@H]1CN(CC(=O)Nc2ccc3c(c2)Cc2cccc(-c4cc(=O)cc(N5CCOCC5)o4)c2S3)C[C@H](C)O1
Procedure, shortened: as §1

CABOZANTINIB = compound: COc1cc2nccc(Oc3ccc(NC(=O)C4(C(=O)Nc5ccc(F)cc5)CC4)cc3)c2cc1OC [CABOZANTINIB]
Procedure, shortened: as §1

BEZ-235 = compound: Cn1c(=O)n(-c2ccc(C(C)(C)C#N)cc2)c2c3cc(-c4cnc5ccccc5c4)ccc3ncc21 [BEZ-235]
Procedure, shortened: as §1

LENVATINIB = compound: COc1cc2nccc(Oc3ccc(NC(=O)NC4CC4)c(Cl)c3)c2cc1C(N)=O [LENVATINIB]
Procedure, shortened: as §1

IMATINIB = compound: Cc1ccc(NC(=O)c2ccc(CN3CCN(C)CC3)cc2)cc1Nc1nccc(-c2cccnc2)n1 [IMATINIB]
Procedure, shortened: as §1

BMN-673 = compound: Cn1ncnc1[C@H]1c2n[nH]c(=O)c3cc(F)cc(c23)N[C@@H]1c1ccc(F)cc1 [BMN-673]
Procedure, shortened: as §1

Test System | area under dose-response curve [1] | area under dose-response curve (BLEOMYCIN) | area under dose-response curve (VORINOSTAT) | area under dose-response curve [2] | area under dose-response curve (NILOTINIB) | area under dose-response curve (MK-1775) | area under dose-response curve [3] | area under dose-response curve (AFIMOXIFENE) | area under dose-response curve [4] | area under dose-response curve (CABOZANTINIB) | area under dose-response curve (BEZ-235) | area under dose-response curve (LENVATINIB) | area under dose-response curve (IMATINIB) | area under dose-response curve (BMN-673)
SCC47 HEADNECK | 3.17 | 2.59 | 3.47 | 3.42 | 3.44 | 2.55 | 2.79 | 4.16 | 3.53 | 3.26 | 2.85 | 3.62 | 3.94 | 
LM7 BONE | 3.17 | 2.46 | 3.26 | 3.23 | 3.1 | 2.34 | 2.32 | 3.53 | 3.09 | 3.43 | 2.77 | 3.27 | 3.59 | 1.78
93VU HEADNECK | 3.44 | 2.25 | 3.25 | 3.51 |  | 2.31 | 2.13 | 4.12 |  | 3.14 | 2.65 | 3.67 | 3.93 | 
NY BONE | 2.58 | 2.43 | 3.06 |  | 3.51 | 2.18 | 2.35 | 3.43 | 3.49 | 3.07 | 2.76 | 3.21 |  | 2.86
S68 BREAST | 2.49 | 2.99 | 3.12 |  | 2.73 | 2.17 | 1.84 | 3.23 |  | 3.55 | 2.14 | 3.45 | 3.6 | 1.74
MCF7 BREAST | 2.75 | 2.65 | 2.74 | 2.85 | 3.12 | 2.74 | 1.93 | 2.96 | 3.09 | 2.91 | 2.35 | 3.12 | 3.28 | 2.58
SIHA CERVIX | 3.45 |  | 3.58 | 3.53 | 3.47 | 2.93 | 2.34 | 3.74 | 3.5 | 3.04 | 2.36 | 3.63 | 3.68 | 2.87
HUO3N1 BONE | 3.12 | 2.94 | 3.25 | 3.26 | 3.34 | 2.77 | 2.24 | 3.5 | 3.28 | 3 | 2.58 | 3.05 | 3.24 | 2.59
ASKA SYNOVIAL | 2.79 | 2.57 | 3.14 | 3.91 | 3.26 | 2.32 | 2 | 3.82 | 3.87 | 3.68 | 2.61 | 3.69 | 3.79 | 1.83
MDAMB436 BREAST | 2.74 | 2.47 | 2.84 | 3.2 | 2.98 | 2.4 | 2.03 | 3.33 | 2.84 | 3.27 | 2.23 | 3.2 | 3.32 | 1.5
PCI30 HEADNECK | 2.74 | 2.41 | 3.21 | 3.27 |  | 2.58 | 2.34 | 3.49 | 3.24 | 3.08 | 2.54 | 3.61 | 3.49 | 2.82
SYO1 SYNOVIAL | 2.54 | 1.65 | 3.02 | 3.07 | 2.99 | 2.27 | 1.95 | 3.24 | 3.18 | 2.68 | 2.23 | 2.56 | 3.02 | 0.997
VCAP PROSTATE | 3.1 | 3.21 | 2.98 | 3.37 | 3.26 | 2.4 | 2.35 | 3.49 | 3.6 | 3.28 | 2.82 |  | 3.67 | 2.63
HELA CERVIX | 3.28 | 3.15 | 3.3 | 3.49 | 3.53 | 2.7 | 2.88 | 3.54 | 3.72 | 3.33 | 3.17 | 3.67 | 3.58 | 3.22
HCC1395 BREAST |  | 2.73 | 3.8 | 3 | 3.22 | 3.14 | 2.91 | 3.9 | 3.09 | 3.98 | 3.18 | 3.23 | 4.07 | 2.84
MDAMB361 BREAST | 2.21 | 2.67 | 2.51 | 3.05 | 2.19 | 2.29 | 2.3 | 2.82 | 2.33 | 2.85 | 2.44 | 2.97 | 2.84 | 2.66
COLO320DM LARGE INTESTINE | 2.74 | 3.13 | 3.04 | 3.7 |  | 2.44 | 2.16 | 3.71 | 3.46 | 3.68 | 2.61 | 3.67 | 3.72 | 2.75
MG63 BONE | 3.49 | 2.35 | 3.43 | 3.27 | 3.81 | 2.87 | 2.06 |  | 3.46 | 3.04 | 2.27 | 2.98 | 3.51 | 2.31
MDAMB134 BREAST | 2.31 | 2.52 | 2.92 |  | 2.75 |  | 2.33 | 3.63 | 2.76 | 3.19 | 2.79 | 3.62 | 3.48 | 3.21

Test System | area under dose-response curve [1] | area under dose-response curve (BLEOMYCIN) | area under dose-response curve (VORINOSTAT) | area under dose-response curve [2] | area under dose-response curve (NILOTINIB) | area under dose-response curve (MK-1775) | area under dose-response curve [3] | area under dose-response curve (AFIMOXIFENE) | area under dose-response curve [4] | area under dose-response curve (CABOZANTINIB) | area under dose-response curve (BEZ-235) | area under dose-response curve (LENVATINIB) | area under dose-response curve (IMATINIB) | area under dose-response curve (BMN-673)
LNCAP PROSTATE | 2.72 |  | 2.63 | 2.98 | 3.62 | 2.42 | 1.49 | 3.37 | 4.03 | 3.11 | 1.95 | 3.21 | 3.3 | 1.43
JURKAT HAEMATOPOIETIC AND LYMPHOID TISSUE | 2.99 | 2.64 | 3.06 | 3.28 | 3.46 | 2.46 | 2.42 | 3.27 | 3.48 | 3.38 | 2.43 | 3.38 | 3.38 | 2.15
H23 LUNG | 3.29 | 1.99 | 3.81 |  | 3.78 | 2.55 | 1.86 | 3.5 | 3.59 | 3.11 | 2.16 | 3.58 | 3.56 | 2.65
MFM223 BREAST |  | 2.64 | 3.21 | 3.77 | 3.16 | 2.48 | 2.27 | 3.79 | 3.36 | 3.65 | 2.45 | 2.7 | 3.93 | 3
MDAMB453 BREAST | 3.06 |  | 3.13 | 3.61 | 3.15 | 2.78 | 2.17 |  | 3.16 | 3.43 | 2.25 | 3.12 | 3.62 | 2.58
CAL72 BONE | 2.93 | 3.13 | 3.52 | 3.56 | 3.29 | 2.65 | 2.62 | 3.6 | 3.2 | 3.56 | 2.3 |  | 3.71 | 3.14
CADOES1 SOFT TISSUE | 2.48 | 2.17 | 2.16 | 3.13 |  | 2.76 | 2.15 |  | 3.25 | 3.02 | 2.12 | 2.86 | 3.08 | 1.72
ZR751 BREAST | 2.92 | 3.06 | 4.01 | 3.02 | 3.01 |  | 1.71 | 3.68 | 3.26 |  | 2.35 |  |  | 3.29
HCC1954 BREAST | 3.14 | 1.38 | 3.06 | 3.23 | 2.74 | 2.32 | 2.09 |  | 2.82 | 3.42 | 2.11 | 3.2 | 3.5 | 
SCC36 HEADNECK | 3 | 2.48 | 3.13 | 3.23 | 3 | 2.66 | 2.62 |  | 3.05 | 3.43 | 2.98 | 3.67 | 3.55 | 2.52
HCC78 LUNG | 2.74 | 1.97 | 2.95 | 2.74 |  | 2.58 | 1.41 | 3.19 | 3.9 | 1.8 | 2.2 | 3.39 | 3.61 | 2.26
HCC1806 BREAST | 2.4 | 1.54 | 3 | 3.26 | 2.94 | 2.16 | 2.72 |  | 3.06 | 3.61 | 2.63 | 3.49 | 3.65 | 1.26
SUM159 BREAST | 3.44 | 3.01 | 3.01 |  | 3.57 | 3.08 | 2.51 | 3.67 | 3.65 | 3.29 | 2.52 | 3.64 | 3.7 | 3.52
SKBR3 BREAST | 3.03 | 2.72 | 3 |  | 2.88 | 2.64 | 1.77 | 3.71 | 3.21 | 3.38 | 2.41 | 3.48 | 3.66 | 2.55
RDES SOFT TISSUE | 4.28 | 2.68 | 3.64 | 3.71 |  | 2.98 | 2.91 | 3.94 |  | 3.82 |  | 3.93 |  | 2.03
22RV1 PROSTATE |  | 2.95 | 3.27 |  | 3.59 | 2.97 | 1.98 | 3.57 | 3.54 | 3.33 | 2.09 | 3.44 | 3.51 | 2.4
HU09 BONE | 2.89 | 2.58 | 3.08 |  | 2.76 | 2.34 | 1.71 | 3.44 | 3.39 | 2.66 | 2.26 | 2.42 | 2.91 | 2.02
MDAMB157 BREAST | 2.75 | 2.5 | 3.15 | 3.26 | 3.49 | 2.07 | 2.35 |  | 3.25 | 3.09 | 2.72 | 3.03 |  | 2.09
NCIH441 LUNG |  | 2.86 | 3.23 | 3.27 |  | 2.78 | 2.77 | 3.62 | 3.5 | 3.29 | 3.03 | 3.46 | 3.69 | 2.71
